Reference: patent EP4722207A1, “OXOISOINDOLINYL-SUBSTITUTED TETRAHYDROPYRIMIDINEDIONE DERIVATIVE AND USE THEREOF” (Gluetacs Therapeutics (Shanghai) Co., Ltd., priority 2023, dated 2024)

Key:
[1] = molecular target: T1, GSPT1 (Homo sapiens, UniProt P15170+Q96SW2); test: Western-blot assay, substrate protein degradation in hPBMCs: GSPT1; type: cell-based; conditions: for GSPT1 substrate protein remaining %: compounds at 50 nM and 500 nM, 24 hours; for substrate protein remaining % GSPT1: 24 hours of compound treatment, 50 nM and 500 nM
T1 construct: effects of the compounds of the present disclosure on the expression of target proteins in cells; endogenous in cells; host or cells: human PBMCs (hPBMCs)
T1 sequence (P15170 whole entry): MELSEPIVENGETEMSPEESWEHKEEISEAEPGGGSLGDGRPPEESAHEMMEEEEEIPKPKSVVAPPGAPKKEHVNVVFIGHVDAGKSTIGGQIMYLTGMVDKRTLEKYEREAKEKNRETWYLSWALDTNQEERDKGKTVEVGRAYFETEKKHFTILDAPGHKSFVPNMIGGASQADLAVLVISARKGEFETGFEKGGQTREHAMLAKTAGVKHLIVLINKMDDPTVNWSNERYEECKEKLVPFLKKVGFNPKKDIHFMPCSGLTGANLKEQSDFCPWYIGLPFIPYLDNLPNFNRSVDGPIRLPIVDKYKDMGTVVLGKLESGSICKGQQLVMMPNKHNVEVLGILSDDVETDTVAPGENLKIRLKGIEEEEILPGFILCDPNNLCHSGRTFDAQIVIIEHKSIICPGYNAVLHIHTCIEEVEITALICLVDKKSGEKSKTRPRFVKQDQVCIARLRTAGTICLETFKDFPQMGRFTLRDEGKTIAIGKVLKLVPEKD
T1 sequence (Q96SW2 whole entry): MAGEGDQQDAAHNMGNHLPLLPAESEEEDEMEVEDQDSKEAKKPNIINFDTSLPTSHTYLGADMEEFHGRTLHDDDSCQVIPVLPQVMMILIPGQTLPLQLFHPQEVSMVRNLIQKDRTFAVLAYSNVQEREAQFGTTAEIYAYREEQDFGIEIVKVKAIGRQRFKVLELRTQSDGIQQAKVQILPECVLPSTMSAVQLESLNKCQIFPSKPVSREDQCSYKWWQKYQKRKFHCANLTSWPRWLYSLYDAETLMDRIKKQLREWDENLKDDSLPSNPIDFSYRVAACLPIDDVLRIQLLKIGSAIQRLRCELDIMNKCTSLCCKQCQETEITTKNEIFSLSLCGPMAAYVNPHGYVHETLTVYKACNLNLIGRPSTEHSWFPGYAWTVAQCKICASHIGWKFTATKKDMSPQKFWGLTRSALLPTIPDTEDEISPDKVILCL
T1 sequence (Q16531 whole entry partner): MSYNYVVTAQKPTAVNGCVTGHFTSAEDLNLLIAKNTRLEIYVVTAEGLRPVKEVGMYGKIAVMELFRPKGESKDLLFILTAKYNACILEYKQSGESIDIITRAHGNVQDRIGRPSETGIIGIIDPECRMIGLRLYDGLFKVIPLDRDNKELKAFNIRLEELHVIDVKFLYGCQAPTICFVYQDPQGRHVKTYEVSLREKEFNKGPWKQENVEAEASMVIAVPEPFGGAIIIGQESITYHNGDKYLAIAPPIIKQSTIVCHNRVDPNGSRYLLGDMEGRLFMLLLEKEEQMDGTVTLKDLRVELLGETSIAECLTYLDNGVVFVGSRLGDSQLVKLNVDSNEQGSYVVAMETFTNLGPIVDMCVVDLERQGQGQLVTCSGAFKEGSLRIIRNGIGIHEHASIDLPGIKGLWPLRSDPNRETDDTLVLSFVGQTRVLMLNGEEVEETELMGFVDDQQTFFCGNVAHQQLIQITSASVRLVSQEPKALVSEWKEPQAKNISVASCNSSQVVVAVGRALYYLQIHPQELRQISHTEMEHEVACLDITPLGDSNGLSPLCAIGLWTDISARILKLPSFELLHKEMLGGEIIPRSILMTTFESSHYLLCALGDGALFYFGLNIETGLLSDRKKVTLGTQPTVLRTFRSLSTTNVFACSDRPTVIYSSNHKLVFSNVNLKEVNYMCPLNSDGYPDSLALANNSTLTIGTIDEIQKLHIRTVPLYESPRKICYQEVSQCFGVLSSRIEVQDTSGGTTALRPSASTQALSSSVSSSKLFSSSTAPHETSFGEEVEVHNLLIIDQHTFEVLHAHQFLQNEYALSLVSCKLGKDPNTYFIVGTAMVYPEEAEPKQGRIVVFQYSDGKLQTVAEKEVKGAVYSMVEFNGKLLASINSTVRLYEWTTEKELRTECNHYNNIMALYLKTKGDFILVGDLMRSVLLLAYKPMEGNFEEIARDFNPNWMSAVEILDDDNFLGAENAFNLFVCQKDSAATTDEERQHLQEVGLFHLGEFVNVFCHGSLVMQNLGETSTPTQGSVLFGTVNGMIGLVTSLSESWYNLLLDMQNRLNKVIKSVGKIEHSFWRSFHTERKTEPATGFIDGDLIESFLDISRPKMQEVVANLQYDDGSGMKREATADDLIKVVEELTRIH

[2] = molecular target: T2, human Cereblon WT GST-tagged protein (Homo sapiens, UniProt Q96SW2); test: CRBN-binding affinity, CEREBLON BINDING kit (HTRF); conditions: for IC50: 3 hours at room temperature; for inhibition at 0.5 µM: read-out: Inhibition Rate at 0.5 µM (%); for inhibition at 2 µM: read-out: Inhibition Rate at 2 µM (%)
T2 construct: purchased CISBIO 64BDCRBNPEH
T2 sequence (Q96SW2 whole entry): as the sequence (Q96SW2 whole entry) above
From the text: The CEREBLON BINDING kits (specification: 10,000 tests; product number: Catalog # 64BDCRBNPEH; CISBIO company) was used to determine the CRBN binding ability of the compounds to be tested through a HTRF method (homogeneous time-resolved fluorescence). The specific methods are as follows: • 1. […] Specifically, diluent #9 (1X) solution was used as the diluent, and multiple concentration gradients were set. […] Into the 96-well plate, the diluted test compounds and corresponding detection reagents were added, resulting in final test compound concentrations of 2 µM and 0.5 µM, respectively. […] Then, 2.5 µL of human Cereblon WT GST-tagged protein solution was added to each well. Finally, 5 µL of the thoroughly mixed Thalidomide-Re reagent and GST Eu antibody working solution were added to each of the aforementioned wells. […] The blank control wells were sequentially added with 2.5 µL of diluent #9 (1X) solution, 2.5 µL of binding buffer, and 5 µL of thoroughly mixed Thalidomide-Re reagent and GST Eu antibody working solution. • 4. […] OD 620 nm control is the absorbance value of the blank control well at an emission wavelength of 620 nm. […] OD 620 nm Std0 is the absorbance value of the solvent control well at an emission wavelength of 620 nm.

[3] = molecular target: T3, IKZF3 (Homo sapiens, UniProt Q96SW2+Q9UKT9); test: Western-blot assay, substrate protein degradation in hPBMCs: IKZF3; type: cell-based; conditions: for IKZF3 substrate protein remaining %: compounds at 50 nM and 500 nM, 24 hours; for substrate protein remaining % IKZF3: 24 hours of compound treatment, 50 nM and 500 nM
T3 construct: effects of the compounds of the present disclosure on the expression of target proteins in cells; endogenous in cells; host or cells: human PBMCs (hPBMCs)
T3 sequence (Q9UKT9 whole entry): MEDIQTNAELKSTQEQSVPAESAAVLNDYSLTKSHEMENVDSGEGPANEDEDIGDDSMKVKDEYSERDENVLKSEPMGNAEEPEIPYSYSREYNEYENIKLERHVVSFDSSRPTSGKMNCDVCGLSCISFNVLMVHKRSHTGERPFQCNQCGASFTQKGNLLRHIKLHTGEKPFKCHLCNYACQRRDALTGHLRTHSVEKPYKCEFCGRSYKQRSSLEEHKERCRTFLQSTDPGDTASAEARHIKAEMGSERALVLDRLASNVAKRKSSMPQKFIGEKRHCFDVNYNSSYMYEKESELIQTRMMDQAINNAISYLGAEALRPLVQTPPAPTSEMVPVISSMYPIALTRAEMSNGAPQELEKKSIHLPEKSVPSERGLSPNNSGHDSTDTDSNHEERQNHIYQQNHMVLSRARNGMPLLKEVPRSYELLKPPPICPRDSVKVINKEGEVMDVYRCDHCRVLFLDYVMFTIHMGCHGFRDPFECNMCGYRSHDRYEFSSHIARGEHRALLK
T3 sequence (Q96SW2 whole entry): as the sequence (Q96SW2 whole entry) above
T3 sequence (Q16531 whole entry partner): as the sequence (Q16531 whole entry partner) above

[4] = molecular target: T4, IKZF2 (Homo sapiens, UniProt Q96SW2+Q9UKS7); test: Western-blot assay, substrate protein degradation in hPBMCs: IKZF2; type: cell-based; conditions: for IKZF2 substrate protein remaining %: compounds at 50 nM and 500 nM, 24 hours; for substrate protein remaining % IKZF2: 24 hours of compound treatment, 50 nM and 500 nM
T4 construct: effects of the compounds of the present disclosure on the expression of target proteins in cells; endogenous in cells; host or cells: human PBMCs (hPBMCs)
T4 sequence (Q9UKS7 whole entry): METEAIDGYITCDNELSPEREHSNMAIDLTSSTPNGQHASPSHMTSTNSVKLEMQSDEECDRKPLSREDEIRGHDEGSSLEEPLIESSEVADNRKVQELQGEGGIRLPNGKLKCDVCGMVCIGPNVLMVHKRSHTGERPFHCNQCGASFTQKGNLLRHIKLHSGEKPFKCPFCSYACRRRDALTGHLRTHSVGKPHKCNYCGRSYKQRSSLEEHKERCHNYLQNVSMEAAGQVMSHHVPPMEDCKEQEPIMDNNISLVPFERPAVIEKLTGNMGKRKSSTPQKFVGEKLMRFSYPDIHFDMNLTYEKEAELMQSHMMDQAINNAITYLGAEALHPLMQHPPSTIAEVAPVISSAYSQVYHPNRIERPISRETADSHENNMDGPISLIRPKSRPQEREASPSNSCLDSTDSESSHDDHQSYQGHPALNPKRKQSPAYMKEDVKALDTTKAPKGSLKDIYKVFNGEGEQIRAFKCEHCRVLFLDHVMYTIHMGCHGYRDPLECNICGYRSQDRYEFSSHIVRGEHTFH
T4 sequence (Q96SW2 whole entry): as the sequence (Q96SW2 whole entry) above
T4 sequence (Q16531 whole entry partner): as the sequence (Q16531 whole entry partner) above

[5] = molecular target: T5, CK1α (Homo sapiens, UniProt P48729+Q96SW2); test: Western-blot assay, substrate protein degradation in hPBMCs: CK1α; type: cell-based; conditions: for CK1α substrate protein remaining %: compounds at 50 nM and 500 nM, 24 hours; for substrate protein remaining % CK1α: 24 hours of compound treatment, 50 nM and 500 nM
T5 construct: effects of the compounds of the present disclosure on the expression of target proteins in cells; endogenous in cells; host or cells: human PBMCs (hPBMCs)
T5 sequence (P48729 whole entry): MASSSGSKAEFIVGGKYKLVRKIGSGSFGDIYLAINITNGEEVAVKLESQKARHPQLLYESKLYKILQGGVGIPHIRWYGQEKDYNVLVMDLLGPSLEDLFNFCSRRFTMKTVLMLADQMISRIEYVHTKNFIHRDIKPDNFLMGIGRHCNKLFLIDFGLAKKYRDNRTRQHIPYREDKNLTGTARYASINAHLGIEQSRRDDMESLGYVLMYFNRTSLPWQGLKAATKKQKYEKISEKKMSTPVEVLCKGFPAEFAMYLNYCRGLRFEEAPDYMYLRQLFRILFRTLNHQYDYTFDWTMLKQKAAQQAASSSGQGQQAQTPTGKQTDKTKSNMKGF
T5 sequence (Q96SW2 whole entry): as the sequence (Q96SW2 whole entry) above
T5 sequence (Q16531 whole entry partner): as the sequence (Q16531 whole entry partner) above

[6] = molecular target: T6, WEE1 (Homo sapiens, UniProt P30291+Q96SW2); test: Western-blot assay, substrate protein degradation in hPBMCs: WEE1; type: cell-based; conditions: for WEE1 substrate protein remaining %: compounds at 50 nM and 500 nM, 24 hours; for substrate protein remaining % WEE1: 24 hours of compound treatment, 50 nM and 500 nM
T6 construct: effects of the compounds of the present disclosure on the expression of target proteins in cells; endogenous in cells; host or cells: human PBMCs (hPBMCs)
T6 sequence (P30291 whole entry): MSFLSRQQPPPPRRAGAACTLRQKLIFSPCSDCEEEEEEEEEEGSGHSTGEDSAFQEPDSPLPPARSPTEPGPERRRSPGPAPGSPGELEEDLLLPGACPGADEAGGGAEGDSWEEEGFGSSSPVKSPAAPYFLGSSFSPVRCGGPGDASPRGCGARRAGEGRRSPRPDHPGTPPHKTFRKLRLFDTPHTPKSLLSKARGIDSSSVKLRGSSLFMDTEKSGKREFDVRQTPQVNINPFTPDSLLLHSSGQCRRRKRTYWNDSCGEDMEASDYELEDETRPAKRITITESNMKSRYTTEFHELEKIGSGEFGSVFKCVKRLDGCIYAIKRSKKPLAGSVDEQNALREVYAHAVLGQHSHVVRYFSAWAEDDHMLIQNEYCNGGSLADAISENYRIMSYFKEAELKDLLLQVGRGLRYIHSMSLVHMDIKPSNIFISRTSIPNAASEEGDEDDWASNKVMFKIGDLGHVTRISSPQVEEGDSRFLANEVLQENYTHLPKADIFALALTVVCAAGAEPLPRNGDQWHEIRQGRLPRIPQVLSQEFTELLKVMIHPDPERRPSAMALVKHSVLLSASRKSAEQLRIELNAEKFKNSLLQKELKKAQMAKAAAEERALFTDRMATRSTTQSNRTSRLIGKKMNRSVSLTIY
T6 sequence (Q96SW2 whole entry): as the sequence (Q96SW2 whole entry) above
T6 sequence (Q16531 whole entry partner): as the sequence (Q16531 whole entry partner) above

[7] = molecular target: T7, IKZF1 (Homo sapiens, UniProt Q13422+Q96SW2); test: Western-blot assay, substrate protein degradation in hPBMCs: IKZF1; type: cell-based; conditions: for IKZF1 substrate protein remaining %: compounds at 50 nM and 500 nM, 24 hours; for substrate protein remaining % IKZF1: 24 hours of compound treatment, 50 nM and 500 nM
T7 construct: effects of the compounds of the present disclosure on the expression of target proteins in cells; endogenous in cells; host or cells: human PBMCs (hPBMCs)

[8] = tested on: Jurkat; test: Cell viability assay (CellTiter-Meiluncell Luminescent), tumor cell proliferation, Jurkat; conditions: Homo sapiens, 96 h, read-out: inhibitory activity (IC50, nM) against tumor cells proliferation, Jurkat
Method: On the following day, the test compounds of the present disclosure were subjected to serial dilution. […] Subsequently, 0.5 µL of the test compound dilution was transferred into the 96-well plate containing the cells, with each well containing 100 µL of cell culture medium. […] Into the 96-well plate, the diluted test compounds and corresponding detection reagents were added, resulting in final test compound concentrations of 500 nM and 10 nM, respectively.
(§1) After the cells were treated with the compounds of the present disclosure for a specified period, the cell viability assay reagent was added to the culture medium according to the kit's instructions to determine cell viability. […] All controls were treated using the same procedure as the compounds of the present disclosure. The growth inhibition curves for the compounds of the present disclosure were plotted using Prism GraphPad software, and the IC50 values were calculated therefrom.

[9] = tested on: MM.1S; test: Cell viability assay (CellTiter-Meiluncell Luminescent), tumor cell proliferation, MM.1S; conditions: Homo sapiens, MM1.S, 96 h, read-out: inhibitory activity (IC50, nM) against tumor cells proliferation, MM.1S
Method: The tumor cells used herein were cultured in a cell culture medium listed in table 2 at 37°C in an incubator with 5% CO2. Prior to experimentation, all cell lines used were correctly identified by STR profiling, and tested negative for mycoplasma contamination using a mycoplasma detection kit through routine screenings.
On the following day, the test compounds of the present disclosure were subjected to serial dilution. […] Subsequently, 0.5 µL of the test compound dilution was transferred into the 96-well plate containing the cells, with each well containing 100 µL of cell culture medium. […] Into the 96-well plate, the diluted test compounds and corresponding detection reagents were added, resulting in final test compound concentrations of 500 nM and 10 nM, respectively. The experimental procedure is described below using the diluted 2 µM test compound as an example.
as §1

[10] = tested on: MV-4-11; test: Cell viability assay (CellTiter-Meiluncell Luminescent), tumor cell proliferation, MV-4-11; conditions: Homo sapiens, MV4-11, 96 h; for inhibition at 0.01 µM: read-out: Inhibition Rate at 10 nM (%); for inhibition at 0.5 µM: read-out: Inhibition Rate at 500 nM (%)
[11] = tested on: H292; test: Cell viability assay (CellTiter-Meiluncell Luminescent), tumor cell proliferation, H292; conditions: Homo sapiens, NCI-H292, 96 h; for inhibition at 0.01 µM: read-out: Inhibition Rate at 10 nM (%); for inhibition at 0.5 µM: read-out: Inhibition Rate at 500 nM (%)

| Compound | IC50 [2] [nM] | substrate protein remaining % GSPT1 [1] | substrate protein remaining % IKZF3 [3] | substrate protein remaining % IKZF2 [4] | substrate protein remaining % CK1α [5] | substrate protein remaining % WEE1 [6] | substrate protein remaining % IKZF1 [7] | inhibition at 0.01 µM [10] [%] | inhibition at 0.5 µM [10] [%] | inhibition at 0.5 µM [2] [%] | inhibition at 2 µM [2] [%] | also measured |
| --- | --- | --- | --- | --- | --- | --- | --- | --- | --- | --- | --- | --- |
| O=C1CCN(N2Cc3cc(CN4CCN(c5cccs5)CC4)ccc3C2=O)C(=O)N1 [GT-05073, 1-(1-oxo-5-((4-(thiophen-2-yl)piperazin-1-yl)methyl)isoindolin-2-yl)dihydropyrimidine-2,4(1H,3H)-dione] | 1000 to 1500 |  |  |  |  |  |  |  |  |  |  | GSPT1 substrate protein remaining % [1]: B ("B" is defined as 80%< substrate protein remaining %≤ 100%); IKZF3 substrate protein remaining % [3]: A ("A" is defined as 0% ≤ substrate protein remaining % ≤ 80%); IKZF2 substrate protein remaining % [4]: B ("B" is defined as 80%< substrate protein remaining %≤ 100%); CK1α substrate protein remaining % [5]: B ("B" is defined as 80%< substrate protein remaining %≤ 100%); WEE1 substrate protein remaining % [6]: B ("B" is defined as 80%< substrate protein remaining %≤ 100%); IKZF1 substrate protein remaining % [7]: B ("B" is defined as 80%< substrate protein remaining %≤ 100%) |
| O=C1CCN(N2Cc3cc(CN4CC5CCC4CN5C(c4ccccc4)c4ccccc4)ccc3C2=O)C(=O)N1 (centres unmarked) [GT-06450, 1-(5-((5-benzhydryl-2,5-diazabicyclo[2.2.2]octan-2-yl)methyl)-1-oxoisoindolin-2-yl)dihydropyrimidine-2,4(1H,3H)-dione] | 1500 to 1900 |  |  |  |  |  |  |  |  |  |  | GSPT1 substrate protein remaining % [1]: A ("A" is defined as 0% ≤ substrate protein remaining % ≤ 80%); IKZF3 substrate protein remaining % [3]: A ("A" is defined as 0% ≤ substrate protein remaining % ≤ 80%); IKZF2 substrate protein remaining % [4]: A ("A" is defined as 0% ≤ substrate protein remaining % ≤ 80%); CK1α substrate protein remaining % [5]: B ("B" is defined as 80%< substrate protein remaining %≤ 100%); WEE1 substrate protein remaining % [6]: A ("A" is defined as 0% ≤ substrate protein remaining % ≤ 80%); IKZF1 substrate protein remaining % [7]: B ("B" is defined as 80%< substrate protein remaining %≤ 100%) |
| O=C1CCN(N2Cc3cc(CN4CC=C(c5c[nH]c6cc(F)ccc56)CC4)ccc3C2=O)C(=O)N1 [GT-07574, 1-(5-((4-(6-fluoro-1H-indol-3-yl)-3,6-dihydropyridin-1(2H)-yl)methyl)-1-oxoisoindolin-2-yl)dihydropyrimidine-2,4(1H,3H)-dione] | 1500 to 1900 | A (0% ≤ substrate protein remaining % ≤ 80%) | B (80%< substrate protein remaining %≤ 100%) | A (0% ≤ substrate protein remaining % ≤ 80%) | A (0% ≤ substrate protein remaining % ≤ 80%) | A (0% ≤ substrate protein remaining % ≤ 80%) | B (80%< substrate protein remaining %≤ 100%) |  |  |  |  |  |
| O=C1CCN(N2Cc3cc(CN4CC=C(c5n[nH]c6cc(F)ccc56)CC4)ccc3C2=O)C(=O)N1 [GT-07578, 1-(5-((4-(6-fluoro-1H-indazol-3-yl)-3,6-dihydropyridin-1(2H)-yl)methyl)-1-oxoisoindolin-2-yl)dihydropyrimidine-2,4(1H,3H)-dione] |  | A (0% ≤ substrate protein remaining % ≤ 80%) | B (80%< substrate protein remaining %≤ 100%) | A (0% ≤ substrate protein remaining % ≤ 80%) | B (80%< substrate protein remaining %≤ 100%) | A (0% ≤ substrate protein remaining % ≤ 80%) | A (0% ≤ substrate protein remaining % ≤ 80%) |  |  |  |  | IC50 [8]: 50 to 100 nM; IC50 [9]: 50 to 100 nM |
| O=C1CCN(N2Cc3cc(CN4CC=C(c5cccc6c(F)cccc56)CC4)ccc3C2=O)C(=O)N1 [GT-07590, 1-(5-((4-(5-fluoronaphthalen-1-yl)-3,6-dihydropyridin-1(2H)-yl)methyl)-1-oxoisoindolin-2-yl)dihydropyrimidine-2,4(1H,3H)-dione] |  | A (0% ≤ substrate protein remaining % ≤ 80%) | A (0% ≤ substrate protein remaining % ≤ 80%) | A (0% ≤ substrate protein remaining % ≤ 80%) | B (80%< substrate protein remaining %≤ 100%) | A (0% ≤ substrate protein remaining % ≤ 80%) | A (0% ≤ substrate protein remaining % ≤ 80%) |  |  |  |  | IC50 [8]: 50 to 100 nM; IC50 [9]: 10 to 50 nM |
| Cc1nc(C2CCN(Cc3ccc4c(c3)CN(N3CCC(=O)NC3=O)C4=O)CC2)c2c(-c3ccccc3)csc2n1 [GT-08087, 1-(5-((4-(2-methyl-5-phenylthieno[2,3-d]pyrimidin-4-yl)piperidin-1-yl)methyl)-1-oxoisoindolin-2-yl)dihydropyrimidine-2,4(1H,3H)-dione] |  |  |  |  |  |  |  | 30 to 40 | 30 to 40 | 20 to 30 | 60 to 80 |  |
| Cc1nc(C2=CCN(Cc3ccc4c(c3)CN(N3CCC(=O)NC3=O)C4=O)CC2)c2c(-c3ccccc3)csc2n1 [GT-08176, 1-(5-((4-(2-methyl-5-phenylthieno[2,3-d]pyrimidin-4-yl)-3,6-dihydropyridin-1(2H)-yl)methyl)-1-oxoisoindolin-2-yl)dihydropyrimidine-2,4(1H,3H)-dione] |  |  |  |  |  |  |  | 60 to 80 | 30 to 40 | 30 to 40 | 60 to 80 | inhibition at 0.01 µM [11]: 15 to 20%; inhibition at 0.5 µM [11]: 20 to 40% |
| Cc1nc(C2=CCN(Cc3ccc4c(c3)CN(N3CCC(=O)NC3=O)C4=O)CC2)c2c3c(sc2n1)CCCC3 [GT-08177, 1-(5-((4-(2-methyl-5,6,7,8-tetrahydrobenzo[4,5]thieno[2,3-d]pyrimidin-4-yl)-3,6-dihydropyridin-1(2H)-yl)methyl)-1-oxoisoindolin-2-yl)dihydropyrimidine-2,4(1H,3H)-dione] |  |  |  |  |  |  |  | 40 to 60 | 30 to 40 | 20 to 30 | 53 to 60 | inhibition at 0.01 µM [11]: 10 to 15%; inhibition at 0.5 µM [11]: 10 to 15% |
